The source of these data is patent publication US20230331675A1, “AROMATIC ETHYLENE COMPOUND AND PREPARATION METHOD THEREFOR, AND INTERMEDIATE, PHARMACEUTICAL COMPOSITION, AND APPLICATION THEREOF” (GUANGZHOU MAXINOVEL PHARMACEUTICALS CO., LTD., priority 2020, published 2023).

A short description of the series: Pharmacokinetic experiment in mice. It is filed as in vivo. To be noted: CD1 male mice, intravenous 2 mg/kg; for F: oral 10 mg/kg by gavage; for AUC(0-inf) / Cmax: mouse, plasma, oral 10 mg/kg by gavage (route of value not stated). From the text: Effect embodiment 2: Pharmacokinetic experiment in mice
Reagents: Acetonitrile, formic acid, methanol (HPLC grade) were purchased from Sigma-Aldrich (USA.), and pure water was purchased from Hangzhou Wahaha Group Co., Ltd. (Hangzhou, China). Other chemical reagents were all analytically pure reagents.
Experimental instruments: liquid chromatograph mass spectrometer (UPLC-MS/MS, composed of AB SCIEX TRIPLE QUAD 6500 triple quadrupole mass spectrometer, Shimadzu high performance liquid phase system. The Analyst 1.6.2 data acquisition and processing system was adopted).
Experimental animals: 6 CD1 male mice, 29-30 g before administration, were purchased from Shanghai Jihui Experimental Animal Breeding Co., Ltd., and the animal certificate number is SCXK(SH) 2017-0012 20170012001403. Before the experiment, the animals should be kept for at least 3 days to adapt to the environment. Throughout the experiment, the animals had free access to food and water.
1) Preparation of a mother liquor: A certain amount of the test drug was weighed in a clean sample bottle, then dimethyl sulfoxide was added, vortexed thoroughly for 1 min, and sonicated for 5 min to give a 4 mg/mL solution.
Drug preparation for intravenous administration: A certain amount of the above solution was taken and placed in a clean sample bottle, then polyethylene glycol-15 hydroxystearate was added, vortexed thoroughly for 1 min, then normal saline was added, and the mixture was continued vortexing for 1 min to give […] solution A.
Drug preparation for oral administration: A certain amount of the test drug was weighed and placed in a clean sample bottle, then a pre-prepared vehicle “10% (w/v) polyoxyethylene 40 hydrogenated castor+20% (w/v) sulfobutyl ether β-cyclodextrin+70% water” was added, vortexed thoroughly for 1 min, magnetically stirred for 20-25 min, and sonicated for 10 min to give 1 mg/mL solution B.
2) Intravenous administration: 3 mice were injected with 2 mg/kg (5 mL/kg) solution A through the tail vein.
Oral administration: 3 mice were given 10 mg/kg (10 mL/kg) solution B by gavage.
3) Collection and storage of plasma samples: Blood samples were collected from the orbital venous plexus of mice according to predetermined time points (5 minutes, 15 minutes, 30 minutes, 1 hour, 2 hours, 4 hours, 8 hours and 24 hours). 25 μL of blood was placed in EDTA-K2 anticoagulant tubes (placed on wet ice), and 20 μL of blood was immediately diluted with 60 μL of water and vortexed until evenly mixed. Plasma was stored in a −70° C. refrigerator for long-term storage until sample analysis.
4) Analysis of plasma samples: 200 μL of acetonitrile (containing 100 ng/mL internal standard) was added to 25 μL of plasma sample, vortexed for 10 minutes, and centrifuged at 5800 rpm for 10 minutes. 70 μL of supernatant was transferred to a 96-well injection plate. 1 μL of plasma sample was analyzed by LC-MS/MS.
5) The pharmacokinetic parameters were calculated according to the test results.

For orientation: AUC(0-inf) means total exposure, with the tail of the curve extrapolated. The Cmax is the maximum level reached in the sampled fluid or tissue.

Each structure is given as a SMILES string.

For the compound `COc1cc(/C=C/c2cccc(-c3ccccc3)c2C)c(C(F)(F)F)cc1CN1CCCC[C@H]1C(=O)O` [drawing 201], the F worked out at 72.4%, the AUC(0-inf) is 40600 ng·h/mL and the Cmax was found to be 1870 ng/mL.
`COc1cc(/C=C/c2cccc(-c3ccccc3)c2C#N)c(C(F)(F)F)cc1CN1CCCC[C@H]1C(=O)O` [drawing 203] showed an F of 69.7%, an AUC(0-inf) of 7620 ng·h/mL and a Cmax of 1400 ng/mL.
The corresponding values for `Cc1cc(/C=C/c2cccc(-c3ccccc3)c2C#N)c(Cl)cc1CN1CCCC[C@H]1C(=O)O` [drawing 205] are 80.6%, 16800 ng·h/mL and 2130 ng/mL.
The compound `COc1cc(/C=C/c2nccc(-c3ccccc3)c2C)c(C(F)(F)F)cc1CN1CCCC[C@H]1C(=O)O` [reference compound] yielded an F of 23.6%, an AUC(0-inf) of 2300 ng·h/mL and a maximum concentration (Cmax) of 673 ng/mL.
The corresponding values for `COc1cc(/C=C/c2nccc(-c3ccccc3)c2C#N)c(C(F)(F)F)cc1CN1CCCC[C@H]1C(=O)O` [reference compound] are 16.4%, 1000 ng·h/mL and 254 ng/mL.
The corresponding values for `Cc1cc(/C=C/c2nccc(-c3ccccc3)c2C#N)c(Cl)cc1CN1CCCC[C@H]1C(=O)O` [reference compound] are 74.1%, 8580 ng·h/mL and 1260 ng/mL.
